Measured values: article PMC5485575, “Arginine kinase from Haemonchus contortus decreased the proliferation and increased the apoptosis of goat PBMCs in vitro” (Parasites & Vectors, 2017)

Biological target: T1, rHc-AK (Haemonchus contortus, UniProt K0DG62)
T1 construct: E. coli BL21(DE3), Ni-NTA
Experiment: fluorimetric ADP formation assay (Universal Fluorimetric Kinase Assay kit)
Type: biochemical
Conditions: room temperature, 30 min; 0-10 ug enzyme; substrates of the kinase reaction solution not named

T1 sequence (K0DG62 entry or part of it): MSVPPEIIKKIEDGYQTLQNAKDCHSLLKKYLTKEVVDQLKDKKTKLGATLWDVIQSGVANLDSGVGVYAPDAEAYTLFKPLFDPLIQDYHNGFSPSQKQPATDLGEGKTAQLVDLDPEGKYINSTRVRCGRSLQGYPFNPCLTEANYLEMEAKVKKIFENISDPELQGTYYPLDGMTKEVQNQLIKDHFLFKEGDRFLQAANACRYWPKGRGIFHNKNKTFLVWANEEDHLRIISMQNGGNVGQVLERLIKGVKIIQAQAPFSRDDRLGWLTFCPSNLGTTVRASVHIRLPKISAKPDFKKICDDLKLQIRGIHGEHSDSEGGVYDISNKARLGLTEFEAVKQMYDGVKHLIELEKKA

Nc1ncnc2c1ncn2[C@@H]1O[C@H](COP(=O)(O)OP(=O)(O)O)[C@@H](O)[C@H]1O [ADP]
fluorimetric ADP formation assay (Universal Fluorimetric Kinase Assay kit): results showed a remarkable augmentation in ADP generation with increased period
